Source: US11807693B2 (priority 2014, dated 2023)
Starred links: 1 amine or outer side, 2 acyl side, 3 side chain; linkers in the order of their positions; H or OH if unused. Non-standard residues stand in square brackets, D forms with d. Residues, ends and D or L forms follow the SMILES beside them. No end group written: not given here. ξ: configuration not given here. *: point of attachment. dBip = N[C@H](Cc1ccc(-c2ccccc2)cc1)C(=O)O; Oic = O=C(O)[C@@H]1C[C@@H]2CCCC[C@@H]2N1; Phe(4-Cl) = N[C@@H](Cc1ccc(Cl)cc1)C(=O)O; Phe(4-I) = N[C@@H](Cc1ccc(I)cc1)C(=O)O; γGlu = O=C(O)[C@H](CCC(=O)[*:2])N[*:1]; NMeR = CN[C@@H](CCCNC(=N)N)C(=O)O; Tridecanoyl = CCCCCCCCCCCCC(=O)*; hArg = N=C(N)NCCCC[C@H](N)C(=O)O; Cha = N[C@@H](CC1CCCCC1)C(=O)O; NMeL = CN[C@@H](CC(C)C)C(=O)O; β3hV = CC(C)[C@H](N)CC(=O)O; Pip = O=C(O)[C@@H]1CCCCN1; Nle = CCCC[C@H](N)C(=O)O; ξαMeP = CC1(C(=O)O)CCCN1; ξβ3hV = CC(C)C(N)CC(=O)O; AEEA = NCCOCCOCC(=O)O; Aib = CC(C)(N)C(=O)O

How the values were obtained:
Format in all cases: in vitro ADME
[1] = In vitro stability in rat plasma; settings: for Stability at 4 hours (% Remaining) Plasma: 5 μM
How it was run: (§1)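 Apelin peptides were spiked at 5 μM final into rat plasma, liver homogenate or kidney homogenate and incubated at 37° C. for up to 4 hr. Aliquots were quenched with MeOH containing internal standard, centrifuged, and supernatants analyzed by high resolution LC-MS.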

[2] = In vitro stability in rat liver homogenate; settings: tissue homogenate; for Stability at 4 hours (% Remaining) Liver: 5 μM
How it was run: as §1

[3] = In vitro stability in rat kidney homogenate; settings: rat, tissue homogenate; for Stability at 4 hours (% Remaining) Kidney: 5 μM
Method: Apelin peptides were spiked into rat plasma, liver homogenate, and kidney homogenate, which were obtained from commercial sources, to a final concentration of 5 μM. The samples were then incubated at 37° C. over a period of 4 hr. […] In a typical experiment, an aliquot of 100 μL of sample was taken from the incubation vial, followed by addition of 300 μL of MeOH containing internal standard. The quenched sample was centrifuged at 5500 g for 15 min after 15 min vortex in room temperature. The supernatant was then analyzed by high resolution LC-MS. […] In vitro plasma, […], and kidney stability results are shown below in Table 14.

Compound | remaining at 4 h, 5 μM [1] [%] | remaining at 4 h, 5 μM [2] [%] | remaining at 4 h, 5 μM [3] [%] | Stability at 4 hours (% Remaining) Plasma [1] [% Remaining] | Stability at 4 hours (% Remaining) Liver [2] [% Remaining] | Stability at 4 hours (% Remaining) Kidney [3] [% Remaining]
CCCCCCCCCCCCC(=O)N[C@@H](CCC(=O)N[C@@H](CCC(=O)NCCOCCOCC(=O)N[C@H](CCC(N)=O)C(=O)N[C@@H](CCCNC(=N)N)C(=O)N1CCC[C@H]1C(=O)N(C)[C@@H](CCCNC(=N)N)C(=O)N[C@@H](CC1CCCCC1)C(=O)N[C@@H](CO)C(=O)N[C@@H](Cc1c[nH]cn1)C(=O)N[C@@H](CCCCN)C(=O)NCC(=O)N1[C@H](C(=O)N[C@@H](CCCC)C(=O)NC(C)(C)C(=O)N[C@@H](Cc2ccc(Cl)cc2)C(=O)O)C[C@@H]2CCCC[C@@H]21)C(=O)O)C(=O)O [compound 535] ({Tridecanoyl-γGlu-γGlu-AEEA}-[dQ]RP[NMeR][Cha]SHKG[Oic][Nle][Aib][Phe(4-Cl)]-OH) | 89 | 3 | < 1 |  |  | 
CCCCCCCCCCCCC(=O)N[C@@H](CCC(=O)NCCOCCOCC(=O)NCCOCCOCC(=O)N[C@H](CCC(N)=O)C(=O)N[C@@H](CCCNC(=N)N)C(=O)N1CCCC[C@H]1C(=O)N(C)[C@@H](CCCNC(=N)N)C(=O)N[C@@H](CC1CCCCC1)C(=O)N[C@@H](CO)C(=O)N[C@@H](Cc1c[nH]cn1)C(=O)N[C@@H](CCCCN)C(=O)NCC(=O)N1[C@H](C(=O)N[C@@H](CCCC)C(=O)NC(C)(C)C(=O)N[C@@H](Cc2ccc(Cl)cc2)C(=O)O)C[C@@H]2CCCC[C@@H]21)C(=O)O [compound 517] ({Tridecanoyl-γGlu-AEEA-AEEA}-[dQ]R[Pip][NMeR][Cha]SHKG[Oic][Nle][Aib][Phe(4-Cl)]-OH) | > 90 | 19 | < 1 |  |  | 
CCCCCCCCCCCCC(=O)N[C@@H](CCC(=O)NCCOCCOCC(=O)NCCOCCOCC(=O)N[C@H](CCC(N)=O)C(=O)N[C@@H](CCCNC(=N)N)C(=O)N1CCCC1(C)C(=O)N[C@@H](CCCCNC(=N)N)C(=O)NC(CC(=O)N[C@@H](CO)C(=O)N[C@@H](Cc1c[nH]cn1)C(=O)N[C@@H](CCCCN)C(=O)NCC(=O)N1CCCC1(C)C(=O)N[C@@H](CCCC)C(=O)N1CCCC1(C)C(=O)N[C@@H](Cc1ccc(Cl)cc1)C(=O)O)C(C)C)C(=O)O (stereo partly drawn) [compound 504] | > 90 | 11 | 4 |  |  | 
CCCCCCCCCCCCC(=O)N[C@@H](CCC(=O)NCCOCCOCC(=O)NCCOCCOCC(=O)N[C@@H](CCC(N)=O)C(=O)N[C@@H](CCCNC(=N)N)C(=O)N1CCCC1(C)C(=O)N[C@@H](CCCCNC(=N)N)C(=O)NC(CC(=O)N[C@@H](CO)C(=O)N[C@@H](Cc1c[nH]cn1)C(=O)N[C@@H](CCCCN)C(=O)NCC(=O)N1[C@H](C(=O)N[C@@H](CCCC)C(=O)N2CCC[C@H]2C(=O)N[C@@H](Cc2ccc(Cl)cc2)C(=O)O)C[C@@H]2CCCC[C@@H]21)C(C)C)C(=O)O (stereo partly drawn) [compound 392] ({Tridecanoyl-γGlu-AEEA-AEEA}-QR[ξαMeP][hArg][ξβ3hV]SHKG[Oic][Nle]P[Phe(4-Cl)]-OH) | 73 | 82 | < 1 |  |  | 
CCCCCCCCCCCCC(=O)N[C@@H](CCC(=O)NCCOCCOCC(=O)NCCOCCOCC(=O)N[C@H](CCC(N)=O)C(=O)N[C@@H](CCCNC(=N)N)C(=O)N1CCC[C@H]1C(=O)N(C)[C@@H](CCCNC(=N)N)C(=O)N[C@@H](CC1CCCCC1)C(=O)N[C@@H](CO)C(=O)N[C@@H](Cc1c[nH]cn1)C(=O)N[C@@H](CCCCN)C(=O)NCC(=O)N1[C@H](C(=O)N[C@@H](CCCC)C(=O)N2CCC[C@H]2C(=O)N[C@@H](Cc2ccc(Cl)cc2)C(=O)O)C[C@@H]2CCCC[C@@H]21)C(=O)O [compound 377] ({Tridecanoyl-γGlu-AEEA-AEEA}-[dQ]RP[NMeR][Cha]SHKG[Oic][Nle]P[Phe(4-Cl)]-OH) | 65 | 4 | 99 |  |  | 
CCCCCCCCCCCCC(=O)N[C@H](CC(=O)O)C(=O)NCCOCCOCC(=O)NCCOCCOCC(=O)N[C@H](CCC(N)=O)C(=O)N[C@@H](CCCNC(=N)N)C(=O)N1CCC[C@H]1C(=O)N(C)[C@@H](CCCNC(=N)N)C(=O)N[C@@H](CC1CCCCC1)C(=O)N[C@@H](CO)C(=O)N[C@@H](Cc1c[nH]cn1)C(=O)N[C@@H](CCCCN)C(=O)NCC(=O)N1[C@H](C(=O)N[C@@H](CCCC)C(=O)NC(C)(C)C(=O)N[C@@H](Cc2ccc(Cl)cc2)C(=O)O)C[C@@H]2CCCC[C@@H]21 [compound 538] (Tridecanoyl-[dD][AEEA][AEEA][dQ]RP[NMeR][Cha]SHKG[Oic][Nle][Aib][Phe(4-Cl)]-OH) | 73 | 2 | < 1 |  |  | 
CCCCCCCCCCCCC(=O)N[C@@H](CCC(=O)NCCOCCOCC(=O)NCCOCCOCC(=O)N[C@@H](CCCNC(=N)N)C(=O)N[C@@H](CCC(N)=O)C(=O)N[C@@H](CCCC)C(=O)N1CCC[C@H]1C(=O)N[C@@H](CCCCNC(=N)N)C(=O)N[C@@H](CC1CCCCC1)C(=O)N[C@@H](CO)C(=O)N[C@@H](Cc1c[nH]cn1)C(=O)N[C@@H](CCCCN)C(=O)NCC(=O)N1[C@H](C(=O)N[C@@H](CCCC)C(=O)N2CCC[C@H]2C(=O)N[C@@H](Cc2ccc(Cl)cc2)C(=O)O)C[C@@H]2CCCC[C@@H]21)C(=O)O [compound 339] ({Tridecanoyl-γGlu-AEEA-AEEA}-RQ[Nle]P[hArg][Cha]SHKG[Oic][Nle]P[Phe(4-Cl)]-OH) | 93 | 13 | 2 |  |  | 
CCCCCCCCCCCCC(=O)N[C@@H](CCC(=O)NCCOCCOCC(=O)NCCOCCOCC(=O)N[C@@H](CCC(N)=O)C(=O)N[C@@H](CCCNC(=N)N)C(=O)N1CCC[C@H]1C(=O)N(C)[C@@H](CCCNC(=N)N)C(=O)N[C@H](CC(=O)N[C@@H](CO)C(=O)N[C@@H](Cc1c[nH]cn1)C(=O)N[C@@H](CCCCN)C(=O)NCC(=O)N1[C@H](C(=O)N[C@@H](CCCC)C(=O)N2CCC[C@H]2C(=O)N[C@@H](Cc2ccc(Cl)cc2)C(=O)O)C[C@@H]2CCCC[C@@H]21)C(C)C)C(=O)O [compound 391] ({Tridecanoyl-γGlu-AEEA-AEEA}-QRP[NMeR][β3hV]SHKG[Oic][Nle]P[Phe(4-Cl)]-OH) | 2 | 5 | 2 |  |  | 
CCCCCCCCCCCCCCCCC(=O)N[C@@H](CCC(=O)NCCOCCOCC(=O)NCCOCCOCC(=O)N[C@@H](CCC(N)=O)C(=O)N[C@@H](CCCNC(=N)N)C(=O)N1CCC[C@H]1C(=O)N(C)[C@@H](CCCNC(=N)N)C(=O)N[C@@H](CC(C)C)C(=O)N[C@@H](CO)C(=O)N[C@@H](Cc1c[nH]cn1)C(=O)N[C@@H](CCCCN)C(=O)NCC(=O)N1CCC[C@H]1C(=O)N[C@@H](CCCC)C(=O)N1CCC[C@H]1C(=O)N[C@@H](Cc1ccc(Cl)cc1)C(=O)O)C(=O)O [compound 496] | 86 | 3 | < 1 |  |  | 
CCCCCCCCCCCCC(=O)N[C@@H](CCC(=O)NCCOCCOCC(=O)NCCOCCOCC(=O)N[C@@H](CCC(N)=O)C(=O)N[C@@H](CCCNC(=N)N)C(=O)N1CCC[C@H]1C(=O)N(C)[C@@H](CCCNC(=N)N)C(=O)N[C@@H](CC1CCCCC1)C(=O)N[C@@H](CO)C(=O)N[C@@H](Cc1c[nH]cn1)C(=O)N[C@@H](CCCCN)C(=O)NCC(=O)N1CCC[C@H]1C(=O)N[C@@H](CCCC)C(=O)N1CCC[C@H]1C(=O)N[C@@H](Cc1ccc(Cl)cc1)C(=O)O)C(=O)O [compound 361] ({Tridecanoyl-γGlu-AEEA-AEEA}-QRP[NMeR][Cha]SHKGP[Nle]P[Phe(4-Cl)]-OH) | 34.5 | 1.5 | 0.5 |  |  | 
120 (QRP[NMeR][Cha]SHKG[Oic][Nle][Aib][Phe(4-Cl)]; not fully specified (N-terminus); ends and bridges not checked; also: 10K mPEG acetamide on N-terminal MerPr) [compound 120] |  |  |  | 68 | 61 | <1.0
CCCCCCCCCCCCC(=O)N[C@@H](CCC(=O)NCCOCCOCC(=O)NCCOCCOCC(=O)N[C@@H](CCCCNC(=N)N)C(=O)N[C@@H](CCC(N)=O)C(=O)N[C@@H](CCCCNC(=N)N)C(=O)N1CCC[C@H]1C(=O)N[C@@H](CCCCNC(=N)N)C(=O)N[C@@H](CC1CCCCC1)C(=O)N[C@@H](CO)C(=O)N[C@@H](Cc1c[nH]cn1)C(=O)N[C@@H](CCCCN)C(=O)NCC(=O)N1[C@H](C(=O)N[C@@H](CCCC)C(=O)N2CCC[C@H]2C(=O)N[C@@H](Cc2ccc(Cl)cc2)C(=O)O)C[C@@H]2CCCC[C@@H]21)C(=O)O [compound 490] ({Tridecanoyl-γGlu-AEEA-AEEA}-[hArg]Q[hArg]P[hArg][Cha]SHKG[Oic][Nle]P[Phe(4-Cl)]-OH) | 88 | 9 | < 1 |  |  | 
CCCCCCCCCCCCC(=O)N[C@@H](CCC(=O)NCCOCCOCC(=O)NCCOCCOCC(=O)N[C@@H](CCCCNC(=N)N)C(=O)N[C@H](CCCNC(=N)N)C(=O)N[C@@H](CCC(N)=O)C(=O)N[C@@H](CCCC)C(=O)N1CCC[C@H]1C(=O)N[C@H](CCCNC(=N)N)C(=O)N(C)[C@@H](CC(C)C)C(=O)N[C@@H](CO)C(=O)N[C@@H](C)C(=O)N[C@@H](CCCCN)C(=O)NCC(=O)N1[C@H](C(=O)N[C@@H](Cc2ccc(I)cc2)C(=O)N2CCC[C@H]2C(=O)N[C@H](Cc2ccc(-c3ccccc3)cc2)C(=O)O)C[C@@H]2CCCC[C@@H]21)C(=O)O [compound 328] ({Tridecanoyl-γGlu-AEEA-AEEA}-[hArg][dR]Q[Nle]P[dR][NMeL]SAKG[Oic][Phe(4-I)]P[dBip]-OH) | 76 | 0 | 55 |  |  | 
110 (QRPRLSHKGPMPF; source: /note="N-term MerPr(10KmPEGacetamide)") [compound 110] |  |  |  | 36 | 61 | 27
